The results in this text go back to US11912682B2, “Isoindolinone compounds” (Monte Rosa Therapeutics, Inc., priority 2021, dated 2024).

In assay [1] the target is CK1alpha (Homo sapiens (Human), UniProt P48729). The experiment in a line: selectivity by Western blot in MM1S cells, CK1alpha. Conditions: MM1S cells, 6 hours, 0.3, 3 and 30 μM. It is filed as cell-based. Here is the method:
(§1) MM1S cells were purchased from ATCC (cat. Number CRL-2974), sub-cultured in 90% RPMI 1640 with 10% FBS, supplemented with 1× P/S and incubated at 37° C., 5% CO2. Compounds were stored as 10 mM DMSO stock. For the assay, MM1S cells (3 million cells/well) were plated in 6-well plates and incubated over night. Cells were treated with respective compounds using a serial dilution: 0.3 μM, 3 μM and 30 μM as well as a vehicle only (DMSO) control for 6 hours. Media with suspension cells was subsequently transferred to 15 mL conical tubes, wells rinsed twice with ice-cold PBS and merged with cell suspension in respective 15 mL conical tube. Cells were spinned down, supernatant aspirated, pellets resuspended in ice-cold PBS and transferred to microtubes. Cells were spinned down, supernatant aspirated and pellets resuspended in 120 μL RIPA lysis buffer supplemented with protease and phosphatase inhibitors. Cell lysates were incubated on ice for 20 minutes followed by centrifugation at >20,000 xg for 5 min. Supernatants were transferred to fresh microtubes and stored at −80° C. Total protein concentration was determined using a BCA assay with a BSA standard curve and concentration of all samples was adjusted to 1 mg/mL. 25 μL 4× LDS sample buffer supplemented with 100 mM DTT was added to 75 μL sample. Samples were centrifuged (8,000 xg, 1 min) and incubated at 95° C. for 5 min followed by another centrifugation step (8,000 xg, 1 min). 20 μL of each sample was loaded on a 4-12% gel alongside a protein molecular weight marker. Gels were run in the presence of MOPS buffer at 80 Volts for 30 min, followed by 120 Volts for 1.5 h and proteins subsequently transferred onto nitrocellulose membranes at 20 Volts for 7 min using an iBlot2 Gel Transfer Device. Membranes were then cut horizontally into two pieces, covering 80-50 kDa and 50-25 kDa. Blocking the membranes was performed by gently shaking in 5% (w/v) skim milk in TSB-T for 1 hr at room temperature. All primary antibodies were used at a 1/1000 in 5% (w/v) BSA dissolved in TBST and incubated with membranes over night at 4° C. Anti-IKZF1 (Ikaros; D6N9Y; 14859S), anti-IKZF3 (Aiolos; D1C1E; 15103S) antibodies were purchased from Cell Signalling Technology, anti-ZFP91 antibody from Bethyl laboratories, anti-GSPT1 from Sigma Aldrich (HPA052488) and anti CK1alpha from AbCam (ab206652). After three washes with 1× TBST for 5 min, HRP-coupled secondary antibodies diluted in 5% (w/v) BSA/TBST (Goat Anti-Rb IgG, dil. 1/10,000; Goat Anti-Mouse IgG, dil. 1/5000) were added for 1 hr at room temperature. After three washes with 1× TBST (5 minutes each), membranes were incubated with ECL reagent for 1 min at room temperature. Chemiluminescence signals were then detected using a LAS-4000 system with default settings and signals quantified using Image Studio Lite software (version 5.2). Membrane parts previously incubated with antibody against CK1alpha were stripped off antibodies by incubating with stripping buffer for 30 minutes followed by three washed with TBST (5 min each), blocking with 5% (w/v) skim milk for 1 hr, and incubation with primary antibody against GAPDH overnight at 4° C. Subsequent washes, incubation with secondary antibody and signal acquisition were performed as described above.

The target of assay [2] is T1, GSPT1 (Homo sapiens (Human), UniProt P15170+Q96SW2). The experiment in a line: immunofluorescence assay for GSPT1 degradation in CAL-51 cells (Example 4). It is filed as cell-based. An outline of the steps: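 CAL-51 cells on fibronectin-coated plates were treated 6 h with serial dilutions (30 μM to 0.1 nM), then fixed and immunostained for GSPT1 with DAPI and phalloidin counterstains. Per-cell mean GSPT1 intensity from high-content imaging, normalized to controls; DC50 by non-linear regression.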
Target sequence in this assay (P15170 whole entry): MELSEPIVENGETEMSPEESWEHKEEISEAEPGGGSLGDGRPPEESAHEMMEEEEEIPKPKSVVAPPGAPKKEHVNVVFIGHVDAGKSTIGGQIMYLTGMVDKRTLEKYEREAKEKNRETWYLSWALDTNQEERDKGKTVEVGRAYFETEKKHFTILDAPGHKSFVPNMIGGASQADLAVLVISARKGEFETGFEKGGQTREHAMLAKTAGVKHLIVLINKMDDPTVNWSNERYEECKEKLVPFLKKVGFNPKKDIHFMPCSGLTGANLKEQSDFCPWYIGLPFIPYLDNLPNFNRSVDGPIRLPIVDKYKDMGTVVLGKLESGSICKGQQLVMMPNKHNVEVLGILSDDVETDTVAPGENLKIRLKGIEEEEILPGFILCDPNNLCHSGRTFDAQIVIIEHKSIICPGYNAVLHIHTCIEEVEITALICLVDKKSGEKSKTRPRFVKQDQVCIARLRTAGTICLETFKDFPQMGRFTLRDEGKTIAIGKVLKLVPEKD
Target sequence in this assay (Q96SW2 whole entry): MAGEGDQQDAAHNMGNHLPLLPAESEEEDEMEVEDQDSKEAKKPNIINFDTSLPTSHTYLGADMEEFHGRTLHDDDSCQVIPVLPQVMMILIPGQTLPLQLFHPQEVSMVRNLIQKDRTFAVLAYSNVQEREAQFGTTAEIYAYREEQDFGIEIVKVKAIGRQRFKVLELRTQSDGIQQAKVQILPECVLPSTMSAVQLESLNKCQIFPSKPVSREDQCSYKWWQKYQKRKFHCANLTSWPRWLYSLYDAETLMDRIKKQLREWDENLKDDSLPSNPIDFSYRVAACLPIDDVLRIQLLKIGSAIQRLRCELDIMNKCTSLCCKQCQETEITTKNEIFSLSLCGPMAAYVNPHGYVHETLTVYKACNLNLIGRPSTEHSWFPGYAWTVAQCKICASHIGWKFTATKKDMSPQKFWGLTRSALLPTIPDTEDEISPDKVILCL
Target sequence in this assay (Q16531 2-1140 partner): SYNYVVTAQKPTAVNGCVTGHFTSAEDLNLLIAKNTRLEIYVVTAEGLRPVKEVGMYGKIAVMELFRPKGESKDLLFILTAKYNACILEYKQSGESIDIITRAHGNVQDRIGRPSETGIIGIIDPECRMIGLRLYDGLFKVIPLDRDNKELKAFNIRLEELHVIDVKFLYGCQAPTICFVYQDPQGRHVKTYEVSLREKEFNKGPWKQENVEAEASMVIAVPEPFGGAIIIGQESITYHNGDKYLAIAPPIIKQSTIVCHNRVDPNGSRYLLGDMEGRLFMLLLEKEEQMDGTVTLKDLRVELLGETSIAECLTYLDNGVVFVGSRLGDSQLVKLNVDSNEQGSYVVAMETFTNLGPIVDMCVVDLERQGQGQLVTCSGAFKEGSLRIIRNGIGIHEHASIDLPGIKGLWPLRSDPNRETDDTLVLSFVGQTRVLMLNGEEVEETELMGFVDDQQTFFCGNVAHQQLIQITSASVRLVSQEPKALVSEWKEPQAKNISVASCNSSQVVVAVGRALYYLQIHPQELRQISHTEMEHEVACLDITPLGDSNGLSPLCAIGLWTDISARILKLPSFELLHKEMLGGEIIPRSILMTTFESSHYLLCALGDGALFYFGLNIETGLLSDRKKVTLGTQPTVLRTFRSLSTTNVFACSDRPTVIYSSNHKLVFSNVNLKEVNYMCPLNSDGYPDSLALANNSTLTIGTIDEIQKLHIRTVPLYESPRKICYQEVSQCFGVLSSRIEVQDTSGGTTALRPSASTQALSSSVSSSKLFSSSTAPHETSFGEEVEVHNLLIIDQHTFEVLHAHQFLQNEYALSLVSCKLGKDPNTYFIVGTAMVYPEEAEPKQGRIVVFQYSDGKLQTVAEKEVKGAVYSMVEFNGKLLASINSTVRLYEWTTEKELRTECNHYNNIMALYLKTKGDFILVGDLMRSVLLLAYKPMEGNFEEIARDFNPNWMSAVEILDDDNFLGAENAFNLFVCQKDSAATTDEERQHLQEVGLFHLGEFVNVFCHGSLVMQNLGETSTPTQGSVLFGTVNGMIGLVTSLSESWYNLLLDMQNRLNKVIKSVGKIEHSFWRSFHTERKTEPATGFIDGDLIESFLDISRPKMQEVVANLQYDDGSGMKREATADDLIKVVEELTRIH

Assay [3] has as its target IKZF1 (Ikaros) (Homo sapiens (Human), UniProt Q13422). The experiment in a line: selectivity by Western blot in MM1S cells, IKZF1. Set-up: key to IKZF1 degradation: A represents a no degradation observed at 30 μM; B represents trace degradation at 30 μM (below 20%); C represents weak degradation at 30 μM (below 50%); D represents degradation at 30 μM (>90%); E represents degradation at 3 μM (>90%); F represents degradation at 0.3 μM (>90%). It counts as cell-based. The settings on record: MM1S cells, 6 hours, 0.3, 3 and 30 μM. The protocol:
as §1

Assay [4] has as its target IKZF3 (Aiolos) (Homo sapiens (Human), UniProt Q9UKT9). The experiment in a line: selectivity by Western blot in MM1S cells, IKZF3. It is filed as cell-based. Also noted: key to IKZF3 degradation: A represents a no degradation observed at 30 μM; B represents trace degradation at 30 μM (below 20%); C represents weak degradation at 30 μM (below 50%); D represents degradation at 30 μM (>90%); E represents degradation at 3 μM (>90%); F represents degradation at 0.3 μM (>90%). The settings on record: MM1S cells, 6 hours, 0.3, 3 and 30 μM. The protocol: as §1

For assay [5], the target named is T1, GSPT1. The experiment in a line: selectivity by Western blot in MM1S cells, GSPT1. It counts as cell-based. The settings on record: MM1S cells, 6 hours, 0.3, 3 and 30 μM. The protocol:
as §1
Target sequence in this assay (P15170 whole entry, looked up): as the sequence (P15170 whole entry) above
Target sequence in this assay (Q96SW2 whole entry, looked up): as the sequence (Q96SW2 whole entry) above
Target sequence in this assay (Q16531 whole entry partner, looked up): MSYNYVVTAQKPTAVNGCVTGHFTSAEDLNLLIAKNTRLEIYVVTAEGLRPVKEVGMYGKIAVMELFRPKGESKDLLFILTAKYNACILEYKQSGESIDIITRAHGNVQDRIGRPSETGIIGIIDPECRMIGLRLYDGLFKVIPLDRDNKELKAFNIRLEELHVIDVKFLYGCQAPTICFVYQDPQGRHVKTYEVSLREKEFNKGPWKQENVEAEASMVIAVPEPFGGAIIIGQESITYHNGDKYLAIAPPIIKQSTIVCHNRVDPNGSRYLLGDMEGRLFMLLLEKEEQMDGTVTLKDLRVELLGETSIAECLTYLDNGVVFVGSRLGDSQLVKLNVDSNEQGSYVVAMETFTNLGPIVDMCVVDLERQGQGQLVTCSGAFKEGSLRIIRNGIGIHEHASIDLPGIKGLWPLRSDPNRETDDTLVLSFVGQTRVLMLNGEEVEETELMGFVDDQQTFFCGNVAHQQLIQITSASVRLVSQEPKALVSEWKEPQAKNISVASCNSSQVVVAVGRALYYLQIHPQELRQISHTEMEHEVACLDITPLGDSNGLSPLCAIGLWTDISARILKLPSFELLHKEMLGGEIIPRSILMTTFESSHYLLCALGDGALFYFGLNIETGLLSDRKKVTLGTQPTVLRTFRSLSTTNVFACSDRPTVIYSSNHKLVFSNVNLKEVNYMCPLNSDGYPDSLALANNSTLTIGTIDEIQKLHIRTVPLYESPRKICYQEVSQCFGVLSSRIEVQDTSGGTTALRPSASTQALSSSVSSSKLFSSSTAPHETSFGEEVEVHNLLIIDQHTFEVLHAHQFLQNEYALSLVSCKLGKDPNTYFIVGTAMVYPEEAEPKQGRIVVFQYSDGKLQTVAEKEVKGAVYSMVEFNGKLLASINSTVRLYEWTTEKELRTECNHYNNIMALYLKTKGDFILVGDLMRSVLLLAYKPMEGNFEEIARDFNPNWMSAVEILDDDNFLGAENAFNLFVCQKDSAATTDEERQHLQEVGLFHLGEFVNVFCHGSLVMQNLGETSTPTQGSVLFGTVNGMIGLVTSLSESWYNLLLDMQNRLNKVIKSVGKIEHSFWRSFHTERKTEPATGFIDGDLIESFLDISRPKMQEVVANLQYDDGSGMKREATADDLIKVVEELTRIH

Assay [6] concerns the target ZFP91 (Homo sapiens (Human), UniProt Q96JP5). The experiment in a line: selectivity by Western blot in MM1S cells, ZFP91. It counts as cell-based. Also noted: key: A represents a no degradation observed at 30 μM; B represents trace degradation at 30 μM (below 20%); C represents weak degradation at 30 μM (below 50%); D represents degradation at 30 μM (>90%); E represents degradation at 3 μM (>90%); F represents degradation at 0.3 μM (>90%). Conditions: 6 hours, 0.3, 3 and 30 μM. Here is the method:
as §1, with “After three washes with 1× TBST (5 minutes each), membranes were incubated with ECL reagent for 1 min at room temperature.” left out, “Membrane parts previously incubated with antibody against CK1alpha were stripped off antibodies by incubating with stripping buffer for 30 minutes followed by three washed with TBST (5 min each), blocking with 5% (w/v) skim milk for 1 hr, and incubation with primary antibody against GAPDH overnight at 4° C. Subsequent washes, incubation with secondary antibody and signal acquisition were performed as described above.” left out

For assay [7], the target named is T1, GSPT1. The experiment in a line: immunofluorescence assay for GSPT1 degradation in CAL-51 cells (Example 10). It counts as cell-based. Summed up:
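CAL-51 cells fixed in formalin, immunostained overnight at 4 °C for GSPT1 and imaged by high-content microscopy. Cells segmented from DAPI and actin channels. DC50 from GSPT1 signal normalized to controls by non-linear regression.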
Target sequence in this assay (P15170 whole entry): as the sequence (P15170 whole entry) above
Target sequence in this assay (Q96SW2 whole entry): as the sequence (Q96SW2 whole entry) above
Target sequence in this assay (Q16531 2-1140 partner): as the sequence (Q16531 2-1140 partner) above

For assay [8], the target named is CRBN-DDB1 (Homo sapiens (Human), UniProt Q96SW2). The experiment in a line: Homogenous Time-Resolved Fluorescence (HTRF) binding assay to CRBN. The protocol:
Compound activity was monitored in a Homogenous Time-Resolved Fluorescence (HTRF) assay using 1-[5-({2-[2-(2-{[2-(2,6-dioxopiperidin-3-yl)-1,3-dioxo-2,3-dihydro-1H-isoindol-4-yl]oxy}acetamido)ethoxy]ethyl}carbamoyl)pentyl]-3,3-dimethyl-2-[(1E,3E)-5-[(2E)-1,3,3-trimethyl-5-sulfo-2,3-dihydro-1H-indol-2-ylidene]penta-1,3-dien-1-yl]-3H-indol-1-ium-5-sulfonate as a fluorescent probe. […] Compounds were stored in dry, ambient temperatures at 10 mM. A 10-point, 1:3 dilution series was prepared from 10 mM stock concentrations in Echo-compatible LDV plates. 10 nL of each compound dilution series was dispensed into assays wells using an Echo 650 (Labcyte inc. USA). […] The assay was then allowed to incubate for 30 min at ambient temperature after transferring compound. […] Analysis and IC50 values were derived using KNIME analytics (KNIME Zurich) transformation and fitting within Collaborative Drug Discovery (Collaborative Drug Discovery USA). Ki was derived from the geometric mean of the IC50 values using the Cheng-Prustoff transformation.

The mark [9] stands for this setting: 6 hours, read-out: Activity for GSPT1 degradation, Code (DC50).
Setting [10] is: GSPT1 degradation, read-out: DC50 value.
The mark [11] stands for this setting: CAL-51 cells, 6 h; read-out: IF Class (GSPT1 degradation DC50).
The mark [12] stands for this setting: CRBN-DDB1, HTRF, read-out: HTRF Class (HTRF IC50, Cereblon binding).

Like-named read-outs stand apart in the source and are kept apart here.

IKZF3 (Aiolos), sequence (Q9UKT9 whole entry, looked up): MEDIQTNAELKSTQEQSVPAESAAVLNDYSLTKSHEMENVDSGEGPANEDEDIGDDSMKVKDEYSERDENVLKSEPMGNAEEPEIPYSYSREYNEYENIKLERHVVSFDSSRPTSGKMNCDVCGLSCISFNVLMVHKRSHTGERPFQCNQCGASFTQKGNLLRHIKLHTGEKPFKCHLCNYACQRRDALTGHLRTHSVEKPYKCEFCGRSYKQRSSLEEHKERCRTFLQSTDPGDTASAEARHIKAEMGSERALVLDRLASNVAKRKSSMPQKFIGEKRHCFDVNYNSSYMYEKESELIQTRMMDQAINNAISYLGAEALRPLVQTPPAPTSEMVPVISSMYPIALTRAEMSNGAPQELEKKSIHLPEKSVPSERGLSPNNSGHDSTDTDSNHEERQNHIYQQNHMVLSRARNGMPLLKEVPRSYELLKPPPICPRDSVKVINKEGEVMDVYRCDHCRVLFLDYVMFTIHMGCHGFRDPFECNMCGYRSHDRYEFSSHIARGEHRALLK
CK1alpha, sequence (P48729 whole entry, looked up): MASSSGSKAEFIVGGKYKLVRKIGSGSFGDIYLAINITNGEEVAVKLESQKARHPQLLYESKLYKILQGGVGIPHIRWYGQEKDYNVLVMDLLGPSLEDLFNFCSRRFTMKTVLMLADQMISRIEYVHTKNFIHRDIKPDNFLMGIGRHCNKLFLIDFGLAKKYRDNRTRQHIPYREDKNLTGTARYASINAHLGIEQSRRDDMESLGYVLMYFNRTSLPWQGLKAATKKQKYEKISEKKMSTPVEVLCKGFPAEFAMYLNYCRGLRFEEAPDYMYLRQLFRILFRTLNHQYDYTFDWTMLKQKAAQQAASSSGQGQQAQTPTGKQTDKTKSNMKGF
IKZF1 (Ikaros), sequence (Q13422 whole entry, looked up): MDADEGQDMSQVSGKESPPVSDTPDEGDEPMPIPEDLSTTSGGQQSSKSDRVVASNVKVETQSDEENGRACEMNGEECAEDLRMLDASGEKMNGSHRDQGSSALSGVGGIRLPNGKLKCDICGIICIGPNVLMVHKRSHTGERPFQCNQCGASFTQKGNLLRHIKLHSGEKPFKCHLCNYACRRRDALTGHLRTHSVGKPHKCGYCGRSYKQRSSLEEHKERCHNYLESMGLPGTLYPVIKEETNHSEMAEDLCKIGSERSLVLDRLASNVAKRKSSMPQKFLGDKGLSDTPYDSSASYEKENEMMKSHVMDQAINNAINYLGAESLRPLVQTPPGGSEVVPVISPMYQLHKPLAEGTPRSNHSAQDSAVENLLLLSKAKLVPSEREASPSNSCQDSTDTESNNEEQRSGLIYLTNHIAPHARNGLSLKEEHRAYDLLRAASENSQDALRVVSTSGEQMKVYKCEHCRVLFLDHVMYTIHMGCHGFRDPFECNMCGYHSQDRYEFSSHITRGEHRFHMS
CRBN-DDB1, sequence (Q96SW2 whole entry): as the sequence (Q96SW2 whole entry) above
CRBN-DDB1, sequence (Q16531 whole entry partner): as the sequence (Q16531 whole entry partner, looked up) above

For the compound `CCc1ncc(NC(=O)OCc2ccc3c(c2)C(=O)N(C2CCC(=O)NC2=O)C3)cc1C` (stereo not shown) [Compound 49], the CK1alpha degradation result in assay [1] is recorded as “B (B represents trace degradation at 30 μM (below 20%))”. In addition, the DC50 in assay [2] (setting [9]) is below 0.03 µM; in assay [2] (setting [10]), at most 0.03 µM. For the same compound, the IKZF1 degradation result in assay [3] is “A”. For the same compound, in assay [4], the IKZF3 degradation entry was “A”. Besides, the GSPT1 degradation entry in assay [5] is recorded as “F (F represents degradation at 0.3 μM (>90%))”. The ZFP91 degradation entry in assay [6] is given as “B (B represents trace degradation at 30 μM (below 20%))”.

For the compound `Cc1ccc(NC(=O)OCc2ccc3c(c2)C(=O)N([C@@H]2CCC(=O)NC2=O)C3)cc1Cl` (single isomer, unassigned) [Compound 176], in assay [7] (setting [11]), the DC50 is below 0.03 µM. For the same compound, the IC50 in assay [8] (setting [12]) is below 0.1 µM.

As to `Cc1ccc(NC(=O)OCc2ccc3c(c2)C(=O)N([C@H]2CCC(=O)NC2=O)C3)cc1Cl` (single isomer, unassigned) [Compound 175], the DC50 in assay [7] (setting [11]) was below 0.03 µM. Besides, in assay [8] (setting [12]), the IC50 was above 1 µM.

`COc1ccc(C(F)(F)C23CC(NC(=O)OCc4ccc5c(c4)C(=O)N(C4CCC(=O)NC4=O)C5)(C2)C3)cc1` (stereo not shown) [Compound 214, (2-(2,6-dioxopiperidin-3-yl)-3-oxoisoindolin-5-yl)methyl(3-(difluoro(4-methoxyphenyl)methyl)bicyclo[1.1.1]pentan-1-yl)carbamate]: the 50% degradation concentration (DC50) in assay [7] (read-out: IF Class (GSPT1 degradation DC50); CAL-51 cells, 6 h) lay in the range of 0.03 to 0.3 µM. Moreover, the IC50 in assay [8] was below 0.1 µM.

Regarding `CC(C)(C)c1ccc(NC(=O)OCc2ccc3c(c2)C(=O)N(C2CCC(=O)NC2=O)C3)cc1` (stereo not shown) [Compound 47], the CK1alpha degradation result in assay [1] is recorded as “B (B represents trace degradation at 30 μM (below 20%))”. Moreover, the DC50 is below 0.03 µM in assay [2] (setting [9]) and at most 0.03 µM in assay [2] (setting [10]). Further, in assay [3], the IKZF1 degradation result was “A”. Moreover, the IKZF3 degradation entry in assay [4] is listed as “A”. The GSPT1 degradation result in assay [5] is on record as “F (F represents degradation at 0.3 μM (>90%))”. For the same compound, the ZFP91 degradation result in assay [6] is on record as “B (B represents trace degradation at 30 μM (below 20%))”.

Take `COc1cc(C)c(Cl)cc1NC(=O)OCc1ccc2c(c1)C(=O)N(C1CCC(=O)NC1=O)C2` (stereo not shown) [Compound 1]: the CK1alpha degradation result in assay [1] is “B (B represents trace degradation at 30 μM (below 20%))”. Further, the results for the DC50 in assay [2] (setting [9]) and in assay [2] (setting [10]) were below 0.03 µM and at most 0.03 µM, respectively. In addition, the IKZF1 degradation entry in assay [3] is given as “A”. Moreover, in assay [4], the IKZF3 degradation result was “B (B represents trace degradation at 30 μM (below 20%))”. In addition, the GSPT1 degradation result in assay [5] is listed as “F (F represents degradation at 0.3 μM (>90%))”. The ZFP91 degradation result in assay [6] is “A”.

Regarding `Cc1c(Cl)cc(NC(=O)OCc2ccc3c(c2)C(=O)N(C2CCC(=O)NC2=O)C3)cc1OCCN1CCOCC1` (stereo not shown) [Compound 48], the CK1alpha degradation entry in assay [1] is “B (B represents trace degradation at 30 μM (below 20%))”. For the same compound, the half-maximal degradation concentration (DC50) in assay [2] (setting [9]) was below 0.03 µM; in assay [2] (setting [10]), at most 0.03 µM. Also, the IKZF1 degradation entry in assay [3] was “A”. Also, in assay [4], the IKZF3 degradation entry is listed as “B (B represents trace degradation at 30 μM (below 20%))”. For the same compound, in assay [5], the GSPT1 degradation result is listed as “F (F represents degradation at 0.3 μM (>90%))”.

With `O=C1CCC(N2Cc3ccc(COC(=O)Nc4cccc(OC(F)(F)F)c4)cc3C2=O)C(=O)N1` (stereo not shown) [Compound 3], in assay [1], the CK1alpha degradation result is reported as “B (B represents trace degradation at 30 μM (below 20%))”. The DC50 is below 0.03 µM in assay [2] (setting [9]) and at most 0.03 µM in assay [2] (setting [10]). For the same compound, the IKZF1 degradation entry in assay [3] is reported as “A”. In assay [4], the IKZF3 degradation entry was “A”. The GSPT1 degradation result in assay [5] is recorded as “F (F represents degradation at 0.3 μM (>90%))”. For the same compound, the ZFP91 degradation entry in assay [6] was “B (B represents trace degradation at 30 μM (below 20%))”.
